This is an account of results in patent US9233961B2, “Compounds and compositions for the treatment of parasitic diseases” (Novartis AG, priority 2013, dated 2016).

pEC50: −log10 of the molar value. Like-named read-outs stand apart in the source and are kept apart here. A value given as a limit tells only on which side of the number the result lay.

In experiment [1] the test system is Trypanosoma brucei Lister 427 strain bloodstream form. Nature of the experiment: Assay for proliferation of kinetoplastid parasite Trypanosoma brucei. Format: cell-based. The following applies: read-out: T. brucei EC50. The method, boiled down:
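Bloodstream-form T. brucei Lister 427 in HMI-9 medium was exposed to compound (DMSO vehicle) for 48 hours at 37° C, 5% CO2. Parasite growth was read as ATP by CellTiter-Glo luminescence, with EC50 calculated from percent inhibition.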

Experiment [2] deals with Leishmania donovani axenic amastigote parasites. The experiment is described as follows: Leishmania donovani axenic amastigote proliferation assay. The class given is cell-based. The following applies: read-out: L. donovani amastigotes EC50. The method, boiled down:
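EC50 values come from CellTiter-Glo luminescence after 2-day compound exposure of axenic amastigotes (9600 per well) at 37 °C, 5% CO2. Medium: RPMI 1640, 20% heat-inactivated FBS, folic acid, adenosine, D-glucose, 25 mM MES, adjusted to pH 5.5.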

For experiment [3], the system named is L. donovani HU3 strain in mouse peritoneal macrophages. The experiment is described as follows: Assay for proliferation of Leishmania parasites in mouse peritoneal macrophages. The following applies: Leishmania donovani, Peritoneal macrophage; for pEC50: read-out: L. donavani Macrophage EC50. The class given is cell-based, Leishmania donovani. The method, boiled down:
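EC50 derives from counting SYBR Green-stained parasite nuclei by high-content imaging after 5 days' compound exposure. Host cells were uninfected BALB/c peritoneal macrophages, infected for 24 h before dosing with spleen-derived L. donovani HU3 parasites from mice infected 9–11 weeks.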

Where [4] appears, read: Lister 427 bloodstream form, 48 hours.

In general, pEC50 refers to the negative decadic logarithm of the EC50, by convention in mol/L. For the molecule `Cc1cnc2nc(-c3cc(NC(=O)OCc4ccccc4)ccc3Cl)[nH]c2c1` [Compound 223], the pEC50 in experiment [1] (setting [4]) was 4.85; in experiment [2] (axenic amastigotes in vitro) it was less than 4.60; in experiment [3] it was 4.67.

For the molecule `COC(=O)Nc1ccc(Cl)c(-c2nc3ncc(C)cc3[nH]2)c1` [Compound 224], the pEC50 in experiment [1] (setting [4]) is 5.58; in experiment [2] (axenic amastigotes in vitro), 4.73; in experiment [3] it was 4.95.

For `Cc1cnc2nc(-c3cc(NC(=O)OCC(F)(F)F)ccc3Cl)[nH]c2c1` [Compound 225], the pEC50 in experiment [1] (setting [4]) is less than 4.60; in experiment [2] (axenic amastigotes in vitro), less than 4.60; in experiment [3], less than 4.30.

In the case of `Cc1cnc2nc(-c3cc(NC(=O)N4CCCCC4)ccc3Cl)[nH]c2c1` [Compound 239], the pEC50 in experiment [1] (setting [4]) is 5.69; in experiment [2] (axenic amastigotes in vitro), 4.86; in experiment [3], less than 4.45.

As for `Cc1cnc2nc(-c3cc(NC(=O)N4CCCC4)ccc3Cl)[nH]c2c1` [Compound 245], the pEC50 was 6.62 in experiment [1] (setting [4]), 5.75 in experiment [2] (axenic amastigotes in vitro) and 4.73 in experiment [3].

On to `Cc1cnc2nc(-c3cc(NC(=O)N4CCNC4=O)ccc3Cl)[nH]c2c1` [Compound 246], for which the pEC50 was less than 4.60 in experiment [1] (setting [4]), less than 4.60 in experiment [2] (axenic amastigotes in vitro) and less than 4.30 in experiment [3].

Consider `Cc1cnc2nc(-c3cc(NC(=O)NC(C)C)ccc3Cl)[nH]c2c1` [Compound 249], for which the pEC50 in experiment [1] (setting [4]) is 4.85; in experiment [2] (axenic amastigotes in vitro), less than 4.60; in experiment [3] it was less than 4.52.

Take `Cc1cnc2nc(-c3cc(NS(=O)(=O)c4cccs4)ccc3Cl)[nH]c2c1` [Compound 251]: the pEC50 in experiment [1] (setting [4]) is less than 4.74; in experiment [2] (axenic amastigotes in vitro), less than 4.60; in experiment [3] it was less than 4.30.

For the molecule `Cc1cnc2nc(-c3cc(NS(=O)(=O)Cc4ccc(C(F)(F)F)cc4)ccc3Cl)[nH]c2c1` [Compound 252], the pEC50 in experiment [1] (setting [4]) was less than 4.60; in experiment [2] (axenic amastigotes in vitro), less than 4.60; in experiment [3], less than 4.30.

With `Cc1cnc2nc(-c3cc(NS(=O)(=O)c4c(C)noc4C)ccc3Cl)[nH]c2c1` [Compound 253], the pEC50 in experiment [1] (setting [4]) is less than 4.60; in experiment [2] (axenic amastigotes in vitro), less than 4.60; in experiment [3], less than 4.55.

In the case of `Cc1cnc2nc(-c3cc(NS(=O)(=O)N4CCCCC4)ccc3Cl)[nH]c2c1` [Compound 254], the negative-log EC50 (pEC50) in experiment [1] (setting [4]) is less than 4.60; in experiment [2] (axenic amastigotes in vitro) it was less than 4.60; in experiment [3], less than 4.30.

Consider `Cc1cnc2nc(-c3cc(NS(=O)(=O)CC(C)C)ccc3Cl)[nH]c2c1` [Compound 255], for which the negative logarithm of the EC50 (pEC50) in experiment [1] (setting [4]) was less than 4.60; in experiment [2] (axenic amastigotes in vitro), less than 4.60; in experiment [3], less than 4.30.

For the molecule `Cc1cnc2nc(-c3cc(N4CCOCC4)ccc3Cl)[nH]c2c1` [Compound 257], the results for the pEC50 in experiment [1] (setting [4]), in experiment [2] (axenic amastigotes in vitro) and in experiment [3] were less than 4.60, less than 4.60 and less than 4.30, respectively.

In the case of `Cc1cnc2nc(-c3cc(Nc4ccc(-n5cncn5)nc4)ccc3Cl)[nH]c2c1` [Compound 258], the values for the pEC50 in experiment [1] (setting [4]), in experiment [2] (axenic amastigotes in vitro) and in experiment [3] were less than 4.81, less than 4.60 and less than 4.30, respectively.

For `Cc1cnc2nc(-c3cc(Nc4ccc(N(C)C)cn4)ccc3Cl)[nH]c2c1` [Compound 259], the results for the pEC50 in experiment [1] (setting [4]), in experiment [2] (axenic amastigotes in vitro) and in experiment [3] were less than 4.60, less than 4.60 and less than 4.30, respectively.

Regarding `Cc1cnc2nc(-c3cc(Nc4ccc(N5CCOCC5)cn4)ccc3Cl)[nH]c2c1` [Compound 260], the pEC50 in experiment [1] (setting [4]) is 4.75; in experiment [2] (axenic amastigotes in vitro) it was less than 4.60; in experiment [3] it was 4.53.

For `Cc1cnc2nc(-c3cc(Nc4cccc5c4CCN(S(C)(=O)=O)C5)ccc3Cl)[nH]c2c1` [Compound 261], the values for the pEC50 in experiment [1] (setting [4]), in experiment [2] (axenic amastigotes in vitro) and in experiment [3] were 4.80, less than 4.60 and less than 4.30, respectively.

With `Cc1ccc(Nc2ccc(Cl)c(-c3nc4ncc(C)cc4[nH]3)c2)nc1` [Compound 262], the values for the pEC50 in experiment [1] (setting [4]), in experiment [2] (axenic amastigotes in vitro) and in experiment [3] were less than 4.65, less than 4.60 and 4.87, respectively.

On to `Cc1cnc2nc(-c3cc(Nc4ccc(C#N)cn4)ccc3Cl)[nH]c2c1` [Compound 263], for which the pEC50 in experiment [1] (setting [4]) is less than 4.60; in experiment [2] (axenic amastigotes in vitro), less than 4.60; in experiment [3], less than 4.52.

Consider `Cc1cnc2nc(-c3cc(Nc4cccnc4N4CCOCC4)ccc3Cl)[nH]c2c1` [Compound 264], for which the values for the pEC50 in experiment [1] (setting [4]), in experiment [2] (axenic amastigotes in vitro) and in experiment [3] were 4.93, less than 4.60 and less than 4.49, respectively.

`Cc1cnc2nc(-c3cc(Nc4nccc5c4CCN(Cc4ccccc4)C5)ccc3Cl)[nH]c2c1` [Compound 265]: the pEC50 was 5.09 in experiment [1] (setting [4]), less than 4.60 in experiment [2] (axenic amastigotes in vitro) and 4.81 in experiment [3].

`O=C(Nc1ccc(Cl)c(-c2nc3ncc(C(F)(F)F)cc3[nH]2)c1)C1CCCC1` [Compound 282]: the pEC50 is 4.95 in experiment [1] (setting [4]), 4.76 in experiment [2] (axenic amastigotes in vitro) and 5.48 in experiment [3].

On to `CNc1ccc(-c2cnc3nc(-c4cc(NC(=O)C5CCCC5)ccc4Cl)[nH]c3c2)cc1` [Compound 346], for which the pEC50 in experiment [1] (setting [4]) is 6.25; in experiment [2] (axenic amastigotes in vitro), 5.60; in experiment [3], 6.33.

As for `CNc1ccc(-c2cnc3nc(-c4cc(NC(=O)c5cscn5)ccc4Cl)[nH]c3c2)cc1` [Compound 349], the results for the pEC50 in experiment [1] (setting [4]), in experiment [2] (axenic amastigotes in vitro) and in experiment [3] were 6.77, 5.87 and 5.57, respectively.

With `CCOC(=O)Nc1ccc(Cl)c(-c2nc3ncc(-c4ccc5c(c4)CC(=O)N5)cc3[nH]2)c1` [Compound 378], the pEC50 was 7.70 in experiment [1] (setting [4]), 6.16 in experiment [2] (axenic amastigotes in vitro) and 5.48 in experiment [3].

A word on the EC50: it is the concentration needed to bring the measured effect to its halfway point. Regarding `COC(=O)Nc1ccc(-c2cnc3nc(-c4cc(NC(=O)c5ccco5)ccc4Cl)oc3c2)cc1` [Compound 417], the pEC50 in experiment [1] (setting [4]) is 7.25; in experiment [2] (axenic amastigotes in vitro) it was 6.67. In addition, the EC50 in experiment [3] (read-out: L. donavani Macrophage EC50 (μM)) amounted to 0.49 µM.

In the case of `Cc1cnc2nc(-c3cc(NC(=O)Cc4cccc(F)c4F)ccc3Cl)[nH]c2c1` [Example 78, N-(4-chloro-3-{6-methyl-1H-imidazo[4,5-b]pyridin-2-yl}phenyl)-2-(2,3-difluorophenyl)acetamide], the figures for the pEC50 in experiment [1] (setting [4]), in experiment [2] (axenic amastigotes in vitro) and in experiment [3] were less than 5.18, less than 4.60 and less than 4.30, respectively.

As to `Cc1cnc2nc(-c3cc(NC(=O)OCCF)ccc3Cl)[nH]c2c1` [Example 214, 2-Fluoroethyl N-(4-chloro-3-{6-methyl-1H-imidazo[4,5-b]pyridin-2-yl}phenyl)carbamate], the results for the pEC50 in experiment [1] (48 h), in experiment [2] and in experiment [3] were 5.65, 5.08 and 4.56, respectively.

`Cc1cnc2nc(-c3cc(NC(=O)N4CCOCC4)ccc3Cl)[nH]c2c1` [Example 237, N-(4-chloro-3-{6-methyl-1H-imidazo[4,5-b]pyridin-2-yl}phenyl)morpholine-4-carboxamide]: the figures for the pEC50 in experiment [1] (setting [4]), in experiment [2] (axenic amastigotes in vitro) and in experiment [3] were 5.06, less than 4.60 and less than 4.30, respectively.

On to `Cc1cnc2nc(-c3cc(NC(=O)NC4CCC4)ccc3Cl)[nH]c2c1` [Example 247, 1-(4-Chloro-3-{6-methyl-1H-imidazo[4,5-b]pyridin-2-yl}phenyl)-3-cyclobutylurea], for which the figures for the pEC50 in experiment [1] (setting [4]), in experiment [2] (axenic amastigotes in vitro) and in experiment [3] were 5.19, less than 4.60 and 4.57, respectively.

Turning to `Cc1cnc2nc(-c3cc(NS(=O)(=O)Cc4ccccc4)ccc3Cl)[nH]c2c1` [Example 250, N-(4-chloro-3-{6-methyl-1H-imidazo[4,5-b]pyridin-2-yl}phenyl)-1-phenylmethanesulfonamide], the pEC50 is less than 4.60 in experiment [1] (setting [4]), less than 4.60 in experiment [2] (axenic amastigotes in vitro) and less than 4.30 in experiment [3].
